These results are taken from patent US20100261751A1, “METHOD FOR D[…] OF THE TWO HUMAN IMMUNODEFICIENCY VIRUS (HIV) INTEGRASE ENZYMATIC […]” (priority 2007, published 2010).

This assay deals with T1, HIV integrase (Human immunodeficiency virus type 1 group M subtype B, UniProt P04585).
T1 construct: stored proteins (integrase, wt, 49 μM in)
Description: 3dQ assay: HIV integrase 3′-end processing fluorescence in vitro assay. Type of assay: biochemical. Particulars: dose response, FIG. 1.

T1 sequence (O75475 whole entry, other chains not shown): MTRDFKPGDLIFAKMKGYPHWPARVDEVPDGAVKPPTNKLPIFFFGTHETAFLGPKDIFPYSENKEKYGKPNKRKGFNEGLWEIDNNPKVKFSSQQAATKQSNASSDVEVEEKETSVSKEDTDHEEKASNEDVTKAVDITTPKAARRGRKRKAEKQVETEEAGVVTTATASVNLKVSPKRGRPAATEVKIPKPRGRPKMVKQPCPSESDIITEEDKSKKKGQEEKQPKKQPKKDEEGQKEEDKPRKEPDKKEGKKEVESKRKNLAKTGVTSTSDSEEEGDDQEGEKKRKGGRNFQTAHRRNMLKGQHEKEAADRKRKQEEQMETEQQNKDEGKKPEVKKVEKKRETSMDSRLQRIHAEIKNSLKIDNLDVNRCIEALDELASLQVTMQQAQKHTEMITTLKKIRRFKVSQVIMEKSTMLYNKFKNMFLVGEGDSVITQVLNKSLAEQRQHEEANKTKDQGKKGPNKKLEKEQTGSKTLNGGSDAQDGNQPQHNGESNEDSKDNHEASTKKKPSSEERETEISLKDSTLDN

As to `O=C(O)C(=O)CC(=O)c1cccn1Cc1ccc(F)cc1` [L731,988], the “inhibition of 3′-end processing (result in words)” value is given as “only showed a weak response”.
